Values of other authors as cited in patent US20230405009A1, “METHODS FOR TREATING HEMATOLOGIC MALIGNANCIES WITH AMINO-PYRROLOPYRIMIDINONE COMPOUNDS” (Merck Sharp & Dohme LLC, priority 2020, published 2023).

Experiments:
CLL mouse models = conditions: Reiff et al. Cancer Discovery 2018
DLBCL mouse models = conditions: Reiff et al. Cancer Discovery 2018

SMILES: O=C(c1ccc(Oc2ccccc2)cc1Cl)c1c[nH]c2ncnc(N[C@@H]3CC[C@@H](CO)OC3)c12 [Compound A]
- efficacy compared with ibrutinib in CLL mouse models (CLL mouse models): superiority over ibrutinib
- efficacy compared with ibrutinib in DLBCL mouse models (DLBCL mouse models): superiority over ibrutinib
